# Source: US5039706A, “Antiinflammatory PLA2 inhibitors” (Du Pont Merck Pharmaceutical Company, priority 1989, dated 1991)
# Where a name gives a salt, the structure may show the parent alone.
# Test system: inflammation induced by tetradecanoyl phorbol acetate (TPA)
# Test: TPA inflammation inhibition test (mouse ear edema)
# Assay type: in vivo, mice
# Design: dose or concentration left out as unconfirmed
# Settings: topical, 4 h, TPA to right ear, edema measured four hours later, read-out: % Inhibition of Control Swelling
# Excerpt: One such model is the inflammation induced by tetradecanoyl phorbol acetate (TPA), modified from the method of Kuehl et al., Nature, 1977, 265, 170; and Van Arman, Clin. Pharmacol. Ther., 1974, 16, 900. The TPA model mimics many of the inflammatory changes which occur in human skin diseases such as psoriasis, since elevated levels of inflammatory arachidonic acid metabolites are found and an influx of polymorphonuclear leukocytes is observed. The test procedure used to evaluate the compounds of Formula (I) is as follows: the test compound […] is applied to both ears of mice in an appropriate vehicle, such as acetone, and then the inflammatory stimulus (TPA) is applied to the right ear. Four hours later, the edema is measured by removing standard size discs from the ears using a biopsy punch. A control group of animals receives TPA in vehicle applied to the right ear, and vehicle alone to the left ear. The weights of the ear discs are determined, and the suppression of swelling observed in animals treated with the test compound is determined.
row,Compound,inhibition in vivo
1,"CC1(C)C2CCC(CNCCC(N)c3ccc(F)cc3)C1C2 (single isomer, unassigned) [Example 11, 4-Fluoro-α-(2-[(1α,2α,5α-7,7-dimethylbicyclo[3.1.1]-heptanyl-2-methyl)amino]ethyl)benzenemethanamine Dihydrochloride]",45%
2,"CC(C)c1ccc2c(c1)CCC1C(C)(CNCCC(N)c3ccc(F)cc3)CCCC21C (stereo not drawn) [Example 1, α-(2-[1,4a-Dimethyl-7-(2-propyl)-1,2,3,4,4a,9,10,10a-octahydro-1-phenanthrenylmethylamino]ethyl)-4-fluorobenzenemethanamine Dihydrochloride]",89%
3,"CCCCCCCCSCCCC(N)c1ccc(F)cc1 (stereo not drawn) [Example 5, 4-Fluoro-α-[3-(octylthio)propyl]benzenemethanamine Hydrochloride]",46%
4,"Cc1ccc(SCCCC(N)c2ccc(F)cc2)cc1 (stereo not drawn) [Example 7, 4-Fluoro-α-[3-(4-methylphenylthio)propyl]benzenemethanamine Hydrochloride]",22%
5,"CC(C)c1ccc2c(c1)CCC1C(C)(CNCCCC(N)c3ccc(F)cc3)CCCC21C (stereo not drawn) [Example 8, 4-Fluoro-α-(4-[1,4a-dimethyl-7-(2-propyl)-1,2,3,4,4a,9,10,10a-octahydro-1-phenanthrenylmethylamino]propyl)-benzenemethanamine Dihydrochloride]",50%
6,"NC(CCCSc1ccncc1)c1ccc(F)cc1 (stereo not drawn) [Example 10, 4-Fluoro-α-[3-(4-pyridinylthio)propyl]benzenemethanamine Dihydrochloride]",24%
7,"CCCCCCCCNCCC(N)c1ccc(F)cc1 (stereo not drawn) [Example 21, 4-Fluoro-α-[2-(octylamino)ethyl]benzenemethanamine Dihydrochloride]",68%
8,"COc1ccc(CNCCC(N)c2ccc(F)cc2)c2ccccc12 (stereo not drawn) [Example 22, 4-Fluoro-α-(2-[(4-methoxynaphthalenyl)methylamino]ethyl)benzenemethanamine Dihydrochloride]",26%
9,"CCCCCCCNCCC(N)c1ccc(F)cc1 (stereo not drawn) [Example 26, 4-Fluoro-α-[2-heptylamino)ethyl]benzenemethanamine Dihydrochloride]",52%
10,"CCCCCCCCCCCNCCC(N)c1ccc(F)cc1 (stereo not drawn) [Example 27, 4-Fluoro-α-[2-undecylamino)ethyl]benzenemethanamine Dihydrochloride]",51%
11,"CCCCCCNCCC(N)c1ccc(F)cc1 (stereo not drawn) [Example 28, 4-Fluoro-α-[2-(hexylamino)ethyl]benzenemethanamine Dihydrochloride]",51%
12,"CC1(C)C2CCC(CNCCC(N)c3ccc(F)cc3)C1C2 (stereo not drawn) [Example 30, α-[2-(7,7-Dimethylbicyclo[3,1,1]heptyl-2-methylamino)ethyl]-4-fluoro-benzenemethanamine Dihydrochloride]",34%
13,"CC(C)(C)CC(C)(C)NCCC(N)c1ccc(F)cc1 (stereo not drawn) [Example 34, 4-Fluoro-α-[2-(1,1,3,3-tetramethylbutyl)aminoethyl]benzenemethanamineDihydrochloride]",22%
14,"CC(NCCC(N)c1ccc(Cl)cc1)C12CC3CC(CC(C3)C1)C2 (stereo not drawn) [Example 36, 4-Chloro-α-(2-[1-(3-adamantyl)ethylamino]ethyl)benzenemethanamine Dihydrochloride]",48%
15,"NC(CCCSc1ccccc1)c1ccc(F)cc1 (stereo not drawn) [Example 38, 4-Fluoro-α-(3-phenylthiopropyl)benzenemethanamine Hydrochloride]",30%
16,"CC(NCCC(N)c1ccc(F)cc1)C12CC3CC(CC(C3)C1)C2 (stereo not drawn) [Example 39, 4-Fluoro-α-(2-[1-(3-adamantyl)ethylamino]ethyl)benzenemethanamine Dihydrochloride]",50%
17,"NC(CCNCCc1cccc2ccccc12)c1ccc(F)cc1 (stereo not drawn) [Example 40, 4-Fluoro-α-(2-[2-(1-naphthalenyl)ethylamino]ethyl)benzenemethanamine Dihydrochloride]",29%
18,"CCCCCCCCCCCCCCCCCCNCCC(N)c1ccc(F)cc1 (stereo not drawn) [Example 42, 4-Fluoro-α-[2-(octadecylamino)ethyl]benzenemethanamine Dihydrochloride]",22%
19,"NC(CCCSc1ccc(F)cc1)c1ccc(F)cc1 (stereo not drawn) [Example 44, 4-Fluoro-α-[3-(4-Fluorophenylthio)propyl]benzenemethanamine Hydrochloride]",25%
20,"CC(C)c1ccc2c(c1)CCC1C(C)(CNCCC(N)c3ccccc3)CCCC21C (stereo not shown) [Example 56, Dihydrochloride]",64%
21,"COc1ccc(C(N)CCNCC2(C)CCCC3(C)c4ccc(C(C)C)cc4CCC23)cc1 (stereo not drawn) [Example 57, α-(2-[1,4a-Dimethyl-7-(2-propyl)-1,2,3,4,4a,9,10,10a-octahydro-1-phenanthrenylmethylamino]ethyl)-4-methoxybenzenemethanamine Dihydrochloride]",60%
22,"CCCCCCC(C)OCCCC(N)c1ccc(F)cc1 (stereo not drawn) [Example 61, 4-Fluoro-α-[3-(2-octyloxy)propyl]benzenemethanamine]",25%
